Like-named read-outs stand apart in the source and are kept apart here.
Biological target: T1, human NaPi-IIb (Homo sapiens, UniProt O95436)
T1 construct: expressed in transfected cells
T1 sequence (O95436 1-690): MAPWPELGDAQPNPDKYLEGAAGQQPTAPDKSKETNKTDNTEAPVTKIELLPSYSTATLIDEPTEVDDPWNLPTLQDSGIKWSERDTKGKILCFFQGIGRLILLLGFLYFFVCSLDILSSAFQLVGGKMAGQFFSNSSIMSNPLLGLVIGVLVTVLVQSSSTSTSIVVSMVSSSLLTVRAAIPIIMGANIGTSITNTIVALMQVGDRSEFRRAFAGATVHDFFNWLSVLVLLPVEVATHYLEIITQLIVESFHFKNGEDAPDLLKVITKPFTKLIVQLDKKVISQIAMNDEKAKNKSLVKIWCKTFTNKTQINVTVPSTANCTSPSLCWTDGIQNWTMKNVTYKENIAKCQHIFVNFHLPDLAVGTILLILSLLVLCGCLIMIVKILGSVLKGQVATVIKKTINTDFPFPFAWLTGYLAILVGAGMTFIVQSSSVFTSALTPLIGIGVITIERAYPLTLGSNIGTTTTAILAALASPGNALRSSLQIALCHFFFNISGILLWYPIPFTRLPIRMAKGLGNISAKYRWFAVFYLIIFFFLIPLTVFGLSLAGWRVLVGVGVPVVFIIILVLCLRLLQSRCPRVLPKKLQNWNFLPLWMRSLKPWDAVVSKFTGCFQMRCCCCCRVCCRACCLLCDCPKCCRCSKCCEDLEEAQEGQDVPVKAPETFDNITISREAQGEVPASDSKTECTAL
Assay: Inhibitory effect on 33PO4 uptake into human NaPi-IIb-expressing CHO cells
Format: cell-based
In short: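 Uptake of ³³PO4 was measured by scintillation counting after ice-cold buffer A washes. Cells were CHO stably expressing human NaPi-IIb, seeded overnight, and exposed to ³³PO4 in buffer A at room temperature.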

[1] = read-out: IC50 against 33PO4 uptake into human NaPi-IIb-expressing cells

| Compound | IC50 (read-out: IC50) | IC50 [1] |
| --- | --- | --- |
| CC(C)[C@H]1C(O)=C(C(=O)Nc2cc(F)c(Br)c(F)c2)C(=O)N(Cc2cccc(F)c2F)N1C [Example 254] | 9.7 µM |  |
| CN1N(Cc2ccc(OCCN3CCOCC3)c(F)c2F)C(=O)C(C(=O)Nc2ccc(C(F)(F)F)cc2-c2cc(C(F)(F)F)ncn2)=C(O)C12CCCCC2 [Example 295] | 17 µM |  |
| COCCN(C)CCOCCOCCOCCOCCOc1ccc(CN2C(=O)C(C(=O)Nc3ccc(C(F)(F)F)cc3-c3cc(C(F)(F)F)ncn3)=C(O)C3(CCCC3)N2C)c(F)c1F [Example 432] |  | 6.3 µM |
| C[C@]12CCCN1N(Cc1cc(F)cc(F)c1)C(=O)C(C(=O)Nc1ccc(C(F)(F)F)cc1-c1cc(C(F)(F)F)ncn1)=C2O [Example 213] | 6.4 µM |  |
| C[C@]12CCCN1N(Cc1ccc(C#CCCCCC(=O)O)c(F)c1F)C(=O)C(C(=O)Nc1ccc(C(F)(F)F)cc1-c1cncc(C(F)(F)F)c1)=C2O [Example 119, 7-[4-[[(4aR)-4-Hydroxy-4a-methyl-2-oxo-3-[[4-(trifluoromethyl)-2-[5-(trifluoromethyl)pyridin-3-yl]phenyl]carbamoyl]-6,7-dihydro-5H-pyrrolo[1,2-b]pyridazin-1-yl]methyl]-2,3-difluorophenyl]hept-6-ynoate] | 9.2 µM |  |
| C[C@@H]1COC[C@H](C)N1CCOc1ccc(CN2C(=O)C(C(=O)Nc3ccc(C(F)(F)F)cc3-c3cc(C(F)(F)F)ncn3)=C(O)C3(CCC3)N2C)c(F)c1F [Example 344] | 13.7 µM |  |
| CN(CCOc1ccc(CN2C(=O)C(C(=O)Nc3ccc(C(F)(F)F)cc3-c3cc(C(F)(F)F)ncn3)=C(O)C3(CCC3)N2C)c(F)c1F)C1COC1 [Example 402, 6-(2,3-Difluoro-4-(2-(methyl(oxetan-3-yl)amino)ethoxy)benzyl)-9-hydroxy-5-methyl-7-oxo-N-(4-(trifluoromethyl)-2-(6-(trifluoromethyl)pyrimidin-4-yl)phenyl)-5,6-diazaspiro[3.5]non-8-ene-8-carboxamide] |  | 12.8 µM |
| CN1N(Cc2ccc(OCCCCCCC(=O)O)c(F)c2F)C(=O)C(C(=O)Nc2ccc(C(F)(F)F)cc2-c2cc(C(F)(F)F)ncn2)=C(O)C12CCCC2 [Example 335] | 8.7 µM |  |
| COCCN(C)CCNc1ccc(CN2C(=O)C(C(=O)Nc3ccc(C(F)(F)F)cc3-c3cc(C(F)(F)F)ncn3)=C(O)C3(CCCC3)N2C)c(F)c1F [Example 417, 7-(2,3-Difluoro-4-((2-((2-methoxyethyl)(methyl)amino)ethyl)amino)benzyl)-10-hydroxy-6-methyl-8-oxo-N-(4-(trifluoromethyl)-2-(6-(trifluoromethyl)pyrimidin-4-yl)phenyl)-6,7-diazaspiro[4.5]dec-9-ene-9-carboxamide] |  | 2.2 µM |
| CCC1(CC)C(O)=C(C(=O)Nc2ccc(Cl)cc2-c2ccc(C(F)(F)F)nc2)C(=O)N(Cc2ccc(OCCN3CCOCC3)c(F)c2F)N1C [Example 294] | 13.4 µM |  |
| CN1N(Cc2ccc(OCCCCOC[C@H](O)CO)c(F)c2F)C(=O)C(C(=O)Nc2ccc(C(F)(F)F)cc2-c2cc(C(F)(F)F)ncn2)=C(O)C12CCCC2 [Example 393] |  | 8.1 µM |
| CN1CCC(Oc2ccc(CN3C(=O)C(C(=O)Nc4ccc(C(F)(F)F)cc4-c4cc(C(F)(F)F)ncn4)=C(O)C4(CCC4)N3C)c(F)c2F)CC1 [Example 411] |  | 12.8 µM |
| C[C@@H]1COC[C@H](C)N1CCOc1ccc(CN2C(=O)C(C(=O)Nc3ccc(C(F)(F)F)cc3-c3cc(C(F)(F)F)ncn3)=C(O)C3(CCCC3)N2C)c(F)c1F [Example 370] |  | 18.2 µM |
| COCCN(C)CCOc1c(-c2cccnc2)cc(CN2C(=O)C(C(=O)Nc3ccc(C(F)(F)F)cc3-c3cc(C(F)(F)F)ncn3)=C(O)C3(CCCC3)N2C)c(F)c1F [Example 440, 9-[[2,3-Difluoro-4-[2-[2-methoxyethyl(methyl)amino]ethoxy]-5-(3-pyridinyl)phenyl]methyl]-6-hydroxy-10-methyl-8-oxo-N-[4-(trifluoromethyl)-2-[6-(trifluoromethyl)pyrimidin-4-yl]phenyl]-9,10-diazaspiro[4.5]dec-6-ene-7-carboxamide] |  | 22.6 µM |
| CN(CCOc1ccc(CN2C(=O)C(C(=O)Nc3ccc(C(F)(F)F)cc3-c3cc(C(F)(F)F)ncn3)=C(O)C3(CCCC3)N2C)c(F)c1F)C1CCOCC1 [Example 365] |  | 12.2 µM |
| COCCN(CCOC)CCOc1ccc(CN2C(=O)C(C(=O)Nc3ccc(C(F)(F)F)cc3-c3cc(C(F)(F)F)ncn3)=C(O)C3(CCC3)N2C)c(F)c1F [Example 348] |  | 26.1 µM |
| COC(=O)c1cc(F)c(CN2C(=O)C(C(=O)Nc3ccc(C(F)(F)F)cc3-c3ccc(C(F)(F)F)nc3)=C(O)[C@@]3(C)CCCN23)c(F)c1 [Example 165, Methyl 4-[[(4aR)-4-Hydroxy-4a-methyl-2-oxo-3-[[4-(trifluoromethyl)-2-[6-(trifluoromethyl)pyridin-3-yl]phenyl]carbamoyl]-6,7-dihydro-5H-pyrrolo[1,2-b]pyridazin-1-yl]methyl]-3,5-difluorobenzoate] | 1.8 µM |  |
| CCC1(CC)C(O)=C(C(=O)Nc2ccc(C(F)(F)F)cc2-c2cc(C(F)(F)F)ncn2)C(=O)N(Cc2ccc(OCCN3CCOCC3)c(F)c2F)N1C [Example 291] | 14.7 µM |  |
| CN1[C@@H](C(C)(C)C)C(O)=C(C(=O)Nc2ccc(C(F)(F)F)cc2-c2ccnc(C#N)c2)C(=O)N1Cc1ccc(OCCN2CCOCC2)c(F)c1F [Example 271] | 17.3 µM |  |
| COC1(C)CN(CCOc2ccc(CN3C(=O)C(C(=O)Nc4ccc(C(F)(F)F)cc4-c4cc(C(F)(F)F)ncn4)=C(O)C4(CCC4)N3C)c(F)c2F)C1 [Example 356] |  | 21.9 µM |
| Cc1nc(NC(=O)C2=C(O)C3(CCCC3)N(C)N(Cc3cccc(F)c3F)C2=O)ccc1Br [Example 262] | 9.9 µM |  |
| CSc1ccc(-c2cc(C(F)(F)F)ccc2NC(=O)C2=C(O)[C@H](C(C)(C)C)N(C)N(Cc3ccc(OCCN4CCOCC4)c(F)c3F)C2=O)cn1 [Example 268] | 7.4 µM |  |
| COCCN(C)CCOc1c(I)cc(CN2C(=O)C(C(=O)Nc3ccc(C(F)(F)F)cc3-c3cc(C(F)(F)F)ncn3)=C(O)C3(CCCC3)N2C)c(F)c1F [Example 437, 7-[[2,3-Difluoro-5-iodo-4-[2-[2-methoxyethyl(methyl)amino]ethoxy]phenyl]methyl]-10-hydroxy-6-methyl-8-oxo-N-[4-(trifluoromethyl)-2-[6-(trifluoromethyl)pyrimidin-4-yl]phenyl]-6,7-diazaspiro[4.5]dec-9-ene-9-carboxamide] |  | 19.5 µM |

The remaining lines, values ahead:

| IC50 (read-out: IC50) | IC50 [1] | Compound |
| --- | --- | --- |
| 7.4 µM |  | CN1[C@@H](C(C)(C)C)C(O)=C(C(=O)Nc2ccc(Br)c(C(F)(F)F)c2)C(=O)N1Cc1cccc(F)c1F [Example 243] |
| 1.3 µM |  | C[C@]12CCCN1N(Cc1cccc(F)c1Cl)C(=O)C(C(=O)Nc1ccc(C(F)(F)F)cc1-c1ccc(C(F)(F)F)nc1)=C2O [Example 201] |
| 1.9 µM |  | C[C@]12CCCN1N(Cc1ccc(F)cc1F)C(=O)C(C(=O)Nc1ccc(C(F)(F)F)cc1-c1ccc(C(F)(F)F)nc1)=C2O [Example 173] |
| 4.9 µM |  | Cc1ccccc1CN1C(=O)C(C(=O)Nc2ccc(C(F)(F)F)cc2-c2cc(C(F)(F)F)ncn2)=C(O)[C@@]2(C)CCCN12 [Example 185] |
| 6.6 µM |  | C[C@]12CCCN1N(Cc1cccc(Cl)c1)C(=O)C(C(=O)Nc1cc(F)c(Br)c(F)c1)=C2O [Example 221] |
| 4 µM |  | COc1ccc(OC)c(CN2C(=O)C(C(=O)Nc3ccc(C(F)(F)F)cc3-c3ccc(C(F)(F)F)nc3)=C(O)[C@@]3(C)CCCN23)c1 [Example 176] |
| 7 µM |  | C[C@]12CCCN1N(Cc1cc(F)c(F)c(F)c1)C(=O)C(C(=O)Nc1cc(F)c(Br)c(F)c1)=C2O [Example 197] |
| 9.4 µM |  | Cc1ncc(-c2cc(C(F)(F)F)ccc2NC(=O)C2=C(O)[C@@]3(C)CCCN3N(Cc3cccc(F)c3F)C2=O)cc1C#N [Example 109, (4aR)—N-[2-(5-Cyano-6-methylpyridin-3-yl)-4-(trifluoromethyl)phenyl]-1-[(2,3-difluorophenyl)methyl]-4-hydroxy-4a-methyl-2-oxo-6,7-dihydro-5H-pyrrolo[1,2-b]pyridazine-3-carboxamide] |
| 1.7 µM |  | C[C@]12CCCN1N(Cc1c(F)cccc1Cl)C(=O)C(C(=O)Nc1ccc(C(F)(F)F)cc1-c1cc(C(F)(F)F)ncn1)=C2O [Example 210] |
| 12.6 µM |  | CN1N(Cc2cccc(F)c2F)C(=O)C(C(=O)Nc2ccc(C(F)(F)F)cc2-c2ccc(S(=O)(=O)N(C)C)cc2)=C(O)C1(C)C [Example 308] |
| 2 µM |  | C[C@]12CCCN1N(Cc1cccc(F)c1F)C(=O)C(C(=O)Nc1ccc(C(F)(F)F)cc1-c1cnc(Cl)nc1)=C2O [Example 67] |
| 4.8 µM |  | C[C@]12CCCN1N(Cc1cccc(F)c1F)C(=O)C(C(=O)Nc1ccc(C(F)(F)F)cc1)=C2O [Example 89] |
| 19.7 µM |  | COc1cccc(-c2cc(C(F)(F)F)ccc2NC(=O)C2=C(O)[C@@]3(C)CCCN3N(Cc3ccc(C#CCOCCO)c(F)c3F)C2=O)c1OC [Example 137] |
| 3.4 µM |  | COc1cccc(CN2C(=O)C(C(=O)Nc3ccc(C(F)(F)F)cc3-c3ccc(C(F)(F)F)nc3)=C(O)[C@@]3(C)CCCN23)c1OC [Example 175] |
| 7.8 µM |  | C[C@]12CCCN1N(Cc1ccc(CCCOCCCO)c(F)c1F)C(=O)C(C(=O)Nc1ccc(C(F)(F)F)cc1-c1ccc(C(F)(F)F)nc1)=C2O [Example 141] |

Source: US9499553B2 (CHUGAI SEIYAKU KABUSHIKI KAISHA, priority 2013, dated 2016)
